In ChEMBL document CHEMBL2406926, “C-Glucopyranosyl-1,2,4-triazoles As New Potent Inhibitors of Glycogen Phosphorylase” (ACS Med Chem Lett, 2013):

molecular target: T1, Glycogen phosphorylase, muscle form (Oryctolagus cuniculus, UniProt P00489); assay: Competitive inhibition of rabbit muscle glycogen phosphorylase b; design: species or system Muscle tissue
T1 sequence (P00489 whole entry): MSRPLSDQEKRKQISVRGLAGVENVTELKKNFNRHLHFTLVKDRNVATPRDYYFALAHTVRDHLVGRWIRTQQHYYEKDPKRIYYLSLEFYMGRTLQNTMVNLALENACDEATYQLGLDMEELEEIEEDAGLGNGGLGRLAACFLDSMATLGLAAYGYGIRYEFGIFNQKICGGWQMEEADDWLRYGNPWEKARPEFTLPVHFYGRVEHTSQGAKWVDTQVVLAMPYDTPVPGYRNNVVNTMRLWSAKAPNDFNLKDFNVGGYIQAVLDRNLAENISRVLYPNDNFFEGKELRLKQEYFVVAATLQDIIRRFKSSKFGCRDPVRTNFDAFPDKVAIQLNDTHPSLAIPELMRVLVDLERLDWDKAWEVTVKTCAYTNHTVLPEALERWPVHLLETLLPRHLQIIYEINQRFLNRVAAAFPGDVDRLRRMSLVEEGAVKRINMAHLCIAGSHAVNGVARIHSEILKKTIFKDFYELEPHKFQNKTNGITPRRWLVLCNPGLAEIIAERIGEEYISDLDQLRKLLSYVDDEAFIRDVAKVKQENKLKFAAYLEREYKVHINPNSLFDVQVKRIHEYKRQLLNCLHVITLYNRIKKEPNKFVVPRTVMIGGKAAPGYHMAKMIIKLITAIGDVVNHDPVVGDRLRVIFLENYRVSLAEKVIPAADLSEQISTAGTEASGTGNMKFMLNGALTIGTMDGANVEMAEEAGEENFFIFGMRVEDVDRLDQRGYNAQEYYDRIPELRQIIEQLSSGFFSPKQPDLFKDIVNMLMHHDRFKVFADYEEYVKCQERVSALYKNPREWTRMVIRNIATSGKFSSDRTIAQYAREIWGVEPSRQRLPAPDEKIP

| Structure (SMILES) | Ki [µM] |
| --- | --- |
| OCc1n[nH]c([C@@H]2O[C@H](CO)[C@@H](O)[C@H](O)[C@H]2O)n1 | 105 |
| OC[C@H]1O[C@@H](c2nnc(-c3ccccc3)[nH]2)[C@H](O)[C@@H](O)[C@@H]1O | 7 |
| OC[C@H]1O[C@@H](c2nc(-c3ccc4ccccc4c3)n[nH]2)[C@H](O)[C@@H](O)[C@@H]1O | 0.41 |
